Values joined by “and” are separate entries in the source; they are usually repeats but may differ in a detail not shown here. Identical values can stand only once.
Key:
[1] = system: transgenic T2 soybean plants; assay: Soybean greenhouse spray test, T2 plants at V2-V3 stage, injury 0-9 point scale 1 or 2 weeks after treatment (Tables 7C-7E); format: in vivo, Glycine max; conditions: 2 week after treatment
Method: (§1) Soybean cv Jake was transformed as previously described by Siminszky et al., Phytochem Rev. 5:445-458 (2006). After regeneration, transformants were transplanted to soil in small pots, placed in growth chambers (16 hr day/8 hr night; 25° C. day/23° C. night; 65% relative humidity; 130-150 microE m-2 s-1) and subsequently tested for the presence of the T-DNA via Taqman analysis. After a few weeks, healthy, transgenic positive, single copy events were transplanted to larger pots and allowed to grow in the growth chamber. An optimal shoot for cutting was about 3-4 inches tall, with at least two nodes present. Each cutting was taken from the original transformant (mother plant) and dipped into rooting hormone powder (indole-3-butyric acid, IBA). The cutting was then placed in oasis wedges inside a bio-dome. The mother plant was taken to maturity in the greenhouse and harvested for seed. Wild type cuttings were also taken simultaneously to serve as negative controls. The cuttings were kept in the bio-dome for 5-7 days and then transplanted to 3 inch pots and then acclimated in the growth chamber for two more days. […] Other herbicides, such as AHAS (ALS—Acetolactate Synthase) inhibiting herbicides were also tested in a similar fashion for confirming cross resistance to other modes of action: Tritosulfuron, Florasulam, Metsulfuron, Rimsulfuron. Herbicide injury evaluations were taken at 2, 7, 14 and 21 days after treatment.
(§2) • 0 No Injury • 1 Minimal injury, only a few patches of leaf injury or chlorosis. • 2 Minimal injury with slightly stronger chlorosis. Overall growth points remain undamaged. • 3 Slightly stronger injury on secondary leaf tissue, but primary leaf and growth points are still undamaged. • 4 Overall plant morphology is slightly different, some chlorosis and necrosis in secondary growth points and leaf tissue. Stems are intact. Regrowth is highly probable within 1 week. • 5 Overall plant morphology is clearly different, some chlorosis and necrosis on a few leaves and growth points, but primary growth point is intact. Stem tissue is still green. Regrowth is highly probably within 1 week. • 6 Strong injury can be seen on the new leaflet growth. Plant has a high probability to survive only through regrowth at different growth points. Most of the leaves are chlorotic/necrotic but stem tissue is still green. May have regrowth but with noticeable injured appearance. • 7 Most of the active growth points are necrotic. There may be a single growth point that could survive and may be partially chlorotic or green and partially necrotic. Two leaves may still be chlorotic with some green; the rest of the plant including stem is necrotic. • 8 Plant will likely die, and all growth points are necrotic. One leaf may still be chlorotic with some green. The remainder of the plant is necrotic. • 9 Plant is dead. • * Not tested

[2] = system: transgenic soybean cv Jake; assay: Soybean greenhouse spray test, clones from T0 individuals, injury 0-9 point scale 1 week after treatment (Table 7A); format: in vivo, Glycine max
Method: as §1, §2

CCS(=O)(=O)c1cccnc1S(=O)(=O)NC(=O)Nc1nc(OC)cc(OC)n1 [Rimsulfuron]
injury on a 0-9 point scale ([1]; Bradi_1g07930.1 (Event 1), 10 g ai/ha): 6.0 | injury on a 0-9 point scale ([1]; Bradi_1g07930.1 (Event 1), Rimsulfuron 1.25 g ai/ha): 6.0 | injury on a 0-9 point scale ([1]; Bradi_1g07930.1 (Event 1), Rimsulfuron 2.5 g ai/ha): 6.0 | injury on a 0-9 point scale ([1]; Bradi_1g07930.1 (Event 1), Rimsulfuron 5 g ai/ha): 6.0 | injury on a 0-9 point scale ([1]; R128A_F420V (Event 1), 10 g ai/ha): 7.5 | injury on a 0-9 point scale ([1]; R128A_F420V (Event 1), Rimsulfuron 1.25 g ai/ha): 6.5 | injury on a 0-9 point scale ([1]; R128A_F420V (Event 1), Rimsulfuron 5 g ai/ha): 7.0 | injury on a 0-9 point scale ([1]; R128A_F420V (Event 2), 10 g ai/ha): 7.0 | injury on a 0-9 point scale ([1]; R128A_F420V (Event 2), Rimsulfuron 1.25 g ai/ha): 6.0 | injury on a 0-9 point scale ([1]; R128A_F420V (Event 2), Rimsulfuron 2.5 g ai/ha): 7.0 | injury on a 0-9 point scale ([1]; R128A_F420V (Event 2), Rimsulfuron 5 g ai/ha): 7.0 | injury on a 0-9 point scale ([1]; R128A_F420V + Bradi_1g07930.1 (Event 1), 10 g ai/ha): 4.3 | injury on a 0-9 point scale ([1]; R128A_F420V + Bradi_1g07930.1 (Event 1), Rimsulfuron 1.25 g ai/ha): 4.0 | injury on a 0-9 point scale ([1]; R128A_F420V + Bradi_1g07930.1 (Event 1), Rimsulfuron 2.5 g ai/ha): 3.5 | injury on a 0-9 point scale ([1]; R128A_F420V + Bradi_1g07930.1 (Event 1), Rimsulfuron 5 g ai/ha): 3.3 | injury on a 0-9 point scale ([1]; R128A_F420V + Bradi_1g07930.1 (Event 2), 10 g ai/ha): 5.0 | injury on a 0-9 point scale ([1]; R128A_F420V + Bradi_1g07930.1 (Event 2), Rimsulfuron 1.25 g ai/ha): 3.0 | injury on a 0-9 point scale ([1]; R128A_F420V + Bradi_1g07930.1 (Event 2), Rimsulfuron 2.5 g ai/ha): 4.0 | injury on a 0-9 point scale ([1]; R128A_F420V + Bradi_1g07930.1 (Event 2), Rimsulfuron 5 g ai/ha): 4.5 | injury on a 0-9 point scale ([1]; wild type, 10 g ai/ha): 8.5 | injury on a 0-9 point scale ([1]; wild type, Rimsulfuron 1.25 g ai/ha): 8.0 | injury on a 0-9 point scale ([1]; wild type, Rimsulfuron 2.5 g ai/ha): 8.5 | injury on a 0-9 point scale ([1]; wild type, Rimsulfuron 5 g ai/ha): 8.3

CC(C)N(C)S(=O)(=O)NC(=O)c1cc(-n2c(=O)cc(C(F)(F)F)n(C)c2=O)c(F)cc1Cl [Saflufenacil, saflufenacil]
injury (0-9 point scale) 1 week after treatment ([2]; Saflufenacil 12.5 g ai/ha, GOI AmtuPPX2L_F420L stacked with Bradi_1g07930.1_Zm): 6 and 5 and 0 (2×) and 1 (2×) | injury (0-9 point scale) 1 week after treatment ([2]; Saflufenacil 12.5 g ai/ha, GOI Bradi_1g07930.1_Zm): 4 (2×) and 1 and 6 (3×) and 0 | injury (0-9 point scale) 1 week after treatment ([2]; Saflufenacil 25 g ai/ha, GOI AmtuPPX2L_F420L stacked with Bradi_1g07930.1_Zm): 6 and 0 (2×) and 2 (2×) | injury (0-9 point scale) 1 week after treatment ([2]; Saflufenacil 25 g ai/ha, GOI Bradi_1g07930.1_Zm): 6 (4×) and 5 (2×) and 1 | injury (0-9 point scale) 1 week after treatment ([2]; Saflufenacil 50 g ai/ha, GOI AmtuPPX2L_F420L stacked with Bradi_1g07930.1_Zm): 5 (2×) and 6 and 1 (3×) and 2 (3×) | injury (0-9 point scale) 1 week after treatment ([2]; Saflufenacil 50 g ai/ha, GOI AmtuPPX2L_R128A_F420L stacked with Bradi_1g07930.1_Zm): 1 | injury (0-9 point scale) 1 week after treatment ([2]; Saflufenacil 50 g ai/ha, GOI AmtuPPX2L_R128A_F420V stacked with Bradi_1g07930.1_Zm): 1 (4×) and 2 (2×) and 6 and 4 and 3 | injury (0-9 point scale) 1 week after treatment ([2]; Saflufenacil 50 g ai/ha, GOI Bradi_1g07930.1_Zm): 6 (2×) and 5 | injury (0-9 point scale) 1 week after treatment ([2]; Saflufenacil 100 g ai/ha, GOI AmtuPPX2L_F420L stacked with Bradi_1g07930.1_Zm): 3 and 6 and 2 | injury (0-9 point scale) 1 week after treatment ([2]; Saflufenacil 100 g ai/ha, GOI AmtuPPX2L_R128A_F420L stacked with Bradi_1g07930.1_Zm): 0 and 3 and 1 (3×) and 2 (4×) and 6 and 4 | injury (0-9 point scale) 1 week after treatment ([2]; Saflufenacil 100 g ai/ha, GOI AmtuPPX2L_R128A_F420V stacked with Bradi_1g07930.1_Zm): 3 (5×) and 0 and 1 and 7 and 2 and 5 and 4 | injury (0-9 point scale) 1 week after treatment ([2]; Saflufenacil 100 g ai/ha, GOI Bradi_1g07930.1_Zm): 8 and 6 | injury (0-9 point scale) 1 week after treatment ([2]; Saflufenacil 200 g ai/ha, GOI AmtuPPX2L_F420L stacked with Bradi_1g07930.1_Zm): 2 (2×) and 6 | injury (0-9 point scale) 1 week after treatment ([2]; Saflufenacil 200 g ai/ha, GOI AmtuPPX2L_R128A_F420L stacked with Bradi_1g07930.1_Zm): 1 and 5 (2×) and 3 (2×) and 2 (4×) and 0 and 4 | injury (0-9 point scale) 1 week after treatment ([2]; Saflufenacil 200 g ai/ha, GOI AmtuPPX2L_R128A_F420V stacked with Bradi_1g07930.1_Zm): 2 (4×) and 5 (2×) and 3 (2×) and 7 and 6 and 8

COc1nc(NC(=O)NS(=O)(=O)c2ccccc2C(F)(F)F)nc(C(F)(F)F)n1 [Tritosulfuron]
injury on a 0-9 point scale ([1]; Bradi_1g07930.1 (Event 1), 4.375 g ai/ha): 1.5 | injury on a 0-9 point scale ([1]; Bradi_1g07930.1 (Event 1), 8.75 g ai/ha): 0.5 | injury on a 0-9 point scale ([1]; Bradi_1g07930.1 (Event 1), 17.5 g ai/ha): 1.7 | injury on a 0-9 point scale ([1]; Bradi_1g07930.1 (Event 1), 35 g ai/ha): 2.3 | injury on a 0-9 point scale ([1]; Bradi_1g07930.1 (Event 1), 70 g ai/ha): 1.5 | injury on a 0-9 point scale ([1]; Bradi_1g07930.1 (Event 1), 140 g ai/ha): 0.3 | injury on a 0-9 point scale ([1]; R128A_F420V (Event 1), 4.375 g ai/ha): 5.3 | injury on a 0-9 point scale ([1]; R128A_F420V (Event 1), 8.75 g ai/ha): 6.0 | injury on a 0-9 point scale ([1]; R128A_F420V (Event 1), 17.5 g ai/ha): 7.0 | injury on a 0-9 point scale ([1]; R128A_F420V (Event 1), 35 g ai/ha): 7.0 | injury on a 0-9 point scale ([1]; R128A_F420V (Event 1), 70 g ai/ha): 7.0 | injury on a 0-9 point scale ([1]; R128A_F420V (Event 1), 140 g ai/ha): 6.5 | injury on a 0-9 point scale ([1]; R128A_F420V (Event 2), 4.375 g ai/ha): 6.0 | injury on a 0-9 point scale ([1]; R128A_F420V (Event 2), 8.75 g ai/ha): 6.5 | injury on a 0-9 point scale ([1]; R128A_F420V (Event 2), 17.5 g ai/ha): 7.0 | injury on a 0-9 point scale ([1]; R128A_F420V (Event 2), 35 g ai/ha): 7.0 | injury on a 0-9 point scale ([1]; R128A_F420V (Event 2), 70 g ai/ha): 7.0 | injury on a 0-9 point scale ([1]; R128A_F420V (Event 2), 140 g ai/ha): 8.0 | injury on a 0-9 point scale ([1]; R128A_F420V + Bradi_1g07930.1 (Event 1), 4.375 g ai/ha): 0.3 | injury on a 0-9 point scale ([1]; R128A_F420V + Bradi_1g07930.1 (Event 1), 8.75 g ai/ha): 0.3 | injury on a 0-9 point scale ([1]; R128A_F420V + Bradi_1g07930.1 (Event 1), 17.5 g ai/ha): 1.5 | injury on a 0-9 point scale ([1]; R128A_F420V + Bradi_1g07930.1 (Event 1), 35 g ai/ha): 2.0 | injury on a 0-9 point scale ([1]; R128A_F420V + Bradi_1g07930.1 (Event 1), 70 g ai/ha): 2.7 | injury on a 0-9 point scale ([1]; R128A_F420V + Bradi_1g07930.1 (Event 1), 140 g ai/ha): 1.3 | injury on a 0-9 point scale ([1]; R128A_F420V + Bradi_1g07930.1 (Event 2), 4.375 g ai/ha): 1.0 | injury on a 0-9 point scale ([1]; R128A_F420V + Bradi_1g07930.1 (Event 2), 8.75 g ai/ha): 2.3 | injury on a 0-9 point scale ([1]; R128A_F420V + Bradi_1g07930.1 (Event 2), 17.5 g ai/ha): 1.5 | injury on a 0-9 point scale ([1]; R128A_F420V + Bradi_1g07930.1 (Event 2), 35 g ai/ha): 1.0 | injury on a 0-9 point scale ([1]; R128A_F420V + Bradi_1g07930.1 (Event 2), 70 g ai/ha): 3.0 | injury on a 0-9 point scale ([1]; R128A_F420V + Bradi_1g07930.1 (Event 2), 140 g ai/ha): 3.0 | injury on a 0-9 point scale ([1]; wild type, 4.375 g ai/ha): 8.0 | injury on a 0-9 point scale ([1]; wild type, 8.75 g ai/ha): 8.0 | injury on a 0-9 point scale ([1]; wild type, 17.5 g ai/ha): 8.0 | injury on a 0-9 point scale ([1]; wild type, 35 g ai/ha): 8.3 | injury on a 0-9 point scale ([1]; wild type, 70 g ai/ha): 8.3 | injury on a 0-9 point scale ([1]; wild type, 140 g ai/ha): 8.3
